From patent US12534450B2, “Methods and compositions for targeting PD-L1” (Aligos Therapeutics, Inc., priority 2021, dated 2026)

Columns and labels:
[1] = molecular target: PD-1/PD-L1 PPI (Homo sapiens, UniProt Q9NZQ7); assay: PDL1/PD1 Binding Assay; conditions: PDL1-6×His 0.3 nM, PD1-Fc-Avi-Biotin 2.5 nM, Acceptor/Donor beads, Envision reader
Experimental: Compounds to be tested were serially diluted in DMSO, and further diluted in assay buffer (25 mM Hepes pH 7.4, 150 mM NaCl, 0.005% Tween 20, BSA 0.01%). Diluted compounds were added to the wells with final concentration of DMSO at 1%. PDL1-6×His protein was added to the wells, mixed well with compound. The plates were incubated for 30 min at room temperature. PD1-Fc-Avi-Biotin protein was added to the wells. Final concentration of PDL1 and PD1 protein is 0.3 nM and 2.5 nM, respectively. After a binding time of 30 min at room temperature, Anti-6×His Acceptor beads (final concentration 20 ug/ml) were added to the wells, and the incubation continued for 1 h. Streptavidin Donor beads (final concentration 20 ug/mL) were added at reduced light. The plates were sealed with foil and incubated in the dark for additional 1 h or overnight before reading on an Envision reader. The IC50 values were determined by fitting the curves using a four-parameter equation in Graphpad Prism 8.

[2] = tested on: PD-1/PD-L1 interaction; assay: PD-1/PD-L1 NFAT Reporter Assay (co-culture of Jurkat T cells overexpressing PD-1 and PD-L1 expressing CHO cells); assay type: cell-based; conditions: co-culture 6 hrs at 37° C., NFAT-mediated luciferase activity
Experimental: Blocking the PD-1/PD-L1 interaction will release the inhibitory signal and results in TCR signaling and NFAT-mediated luciferase activity.
CHO cells expressing surface-bound anti-CD3 antibodies and PD-L1 were first seeded overnight and treated with the compounds. Jurkat cells overexpressing PD-1 and a luciferase construct under NFAT promoter were then immediately seeded on the monolayer of CHO cells. The co-culture was then incubated for 6 hrs at 37° C. Luciferase activity was assessed by adding the ONE-Glo reagent and measuring luminescence with a plate reader. EC50 values were determined from the fit of the dose-response curves.

Chain of PD-1/PD-L1 PPI (Q9NZQ7 19-238 limits assumed): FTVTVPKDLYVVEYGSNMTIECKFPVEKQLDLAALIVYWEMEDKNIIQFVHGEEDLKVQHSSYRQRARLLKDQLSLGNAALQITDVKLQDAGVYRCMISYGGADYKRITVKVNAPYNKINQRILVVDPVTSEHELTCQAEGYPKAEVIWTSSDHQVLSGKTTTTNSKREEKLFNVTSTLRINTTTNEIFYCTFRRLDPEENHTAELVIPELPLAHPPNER

| SMILES | IC50 [1] [nM] | EC50 [2] [nM] | EC50 ([2]; Homo sapiens, Jurkat, 6 h) [nM] |
| --- | --- | --- | --- |
| COc1nc(-c2cccc(-c3cccc(NC(=O)c4cn(C)c(=O)n(C)c4=O)c3C)c2Cl)cc2c1C(NC[C@@H]1CCC(=O)N1)C(O)C2 (single isomer, unassigned) [Compound A-128] | ≤ 10 | 100 to 1000 | – |
| COc1nc(-c2cccc(-c3cccc(NC(=O)c4cn(C)c(=O)n(C)c4=O)c3OC)c2Cl)cc2c1[C@@H](NC[C@@H]1CCC(=O)N1)CC2 [Compound A-53] | ≤ 10 | – | 100 to 1000 |
| COc1nc(-c2cccc(-c3cccc(NC(=O)c4cn(C)c(=O)n(C)c4=O)c3C)c2Cl)cc2c1[C@@H](N1CC3(CNC(=O)C3)C1)CC2 (single isomer, unassigned) [Compound A-132] | ≤ 10 | 100 to 1000 | – |
| COc1nc(-c2cccc(-c3cccc(NC(=O)c4cn(C)c(=O)n(C)c4=O)c3C)c2C)cc2c1[C@@H](NC[C@@H]1CCC(=O)N1)CO2 (single isomer, unassigned) [Compound A-49] | ≤ 10 | – | 10 to 100 |
| COc1nc(-c2cccc(-c3cccc(NC(=O)c4cn(C)c(=O)n(C)c4=O)c3Cl)c2Cl)cc2c1C(N1CC(OC)C1)CC2 [Compound D-1] | ≤ 10 | – | ≤ 10 |
| COc1nc(-c2cc(F)cc(-c3cccc(NC(=O)c4cn(C)c(=O)n(C)c4=O)c3C)c2Cl)cc2c1[C@@H](NC[C@@H]1CCC(=O)N1)CC2 [Compound A-69] | ≤ 10 | – | ≤ 10 |
| COc1nc(-c2cccc(-c3cccc(NC(=O)c4cn(C)c(=O)n(C)c4=O)c3Cl)c2Cl)cc2c1C(N1CC3(CCN(C(=O)OC(C)(C)C)C3)C1)CC2 [Compound D-16] | 10 to 100 | – | 100 to 1000 |
| COc1nc(-c2cccc(-c3cccc(NC(=O)c4cn(C)c(=O)n(C)c4=O)c3Cl)c2Cl)cc2c1C(N1CCC3(CN(C(=O)OC(C)(C)C)C3)C1)CC2 (centres unmarked) [Compound A-119] | ≤ 10 | – | 100 to 1000 |
| COc1nc(-c2cccc(-c3cccc(NC(=O)c4cn(C)c(=O)n(C)c4=O)c3Cl)c2Cl)cc2c1[C@@H](N[C@@H]1CCOC[C@@H]1O)CC2 (single isomer, unassigned) [Compound A-29] | ≤ 10 | – | ≤ 10 |
| COc1nc(-c2cccc(-c3cccc(NC(=O)c4cn(C)c(=O)n(C)c4=O)c3Cl)c2Cl)cc2c1C(N1CC3(CCN(C(C)=O)C3)C1)CC2 (centres unmarked) [Compound H-1] | ≤ 10 | – | ≤ 10 |
| COc1nc(-c2cccc(-c3cccc(NC(=O)c4nn(C)c(=O)n(C)c4=O)c3C)c2Cl)cc2c1[C@H](N[C@@H]1COC[C@H]1O)CC2 (single isomer, unassigned) [Compound A-102] | ≤ 10 | – | ≤ 10 |
| COc1nc(-c2cccc(-c3cccc(NC(=O)c4nn(C)c(=O)n(C)c4=O)c3C)c2C)cc2c1[C@H](N[C@@H]1COC[C@@H]1O)CC2 (single isomer, unassigned) [Compound A-112] | ≤ 10 | – | 1000 to 10000 |
| COc1nc(-c2cccc(-c3cccc(NC(=O)c4ccnn(C)c4=O)c3C)c2Cl)cc2c1[C@@H](NC[C@@H]1CCC(=O)N1)CC2 [Compound A-47] | ≤ 10 | – | ≤ 10 |
| COc1nc(-c2c(F)ccc(-c3cccc(NC(=O)c4cn(C)c(=O)n(C)c4=O)c3C)c2F)cc2c1[C@@H](NC[C@@H]1CCC(=O)N1)CC2 [Compound A-70] | ≤ 10 | – | 10 to 100 |
| COc1nc(-c2cccc(-c3cccc(NC(=O)c4cn(C)c(=O)n(C)c4=O)c3C)c2Cl)cc2c1C(NC1COC1)CC2 [Compound D-10] | ≤ 10 | – | 10 to 100 |
| COc1nc(-c2cccc(-c3cccc(NC(=O)c4ccn[nH]c4=O)c3C)c2Cl)cc2c1[C@@H](NC[C@@H]1CCC(=O)N1)CC2 [Compound A-52] | ≤ 10 | – | 10 to 100 |
| COc1nc(-c2cccc(-c3cccc(NC(=O)c4nn(C)c(=O)n(C)c4=O)c3C)c2Cl)cc2c1[C@@H](N[C@@H]1COC[C@@H]1O)CC2 (single isomer, unassigned) [Compound A-109] | ≤ 10 | – | ≤ 10 |

| SMILES | IC50 [1] [nM] | EC50 [2] [nM] | EC50 ([2]; Homo sapiens, Jurkat, 6 h) [nM] |
| --- | --- | --- | --- |
| COc1nc(-c2cccc(-c3cccc(NC(=O)c4cn(C)c(=O)n(C)c4=O)c3C)c2Cl)cc2c1C(NC[C@@H]1CCC(=O)N1)C(F)C2 (single isomer, unassigned) [Compound K-1b] | ≤ 10 | 100 to 1000 | – |
| COc1nc(-c2cccc(-c3cccc(NC(=O)c4cn(C)c(=O)n(C)c4=O)c3C)c2Cl)cc2c1C(NC[C@@H]1CCC(=O)N1)C(O)C2 (single isomer, unassigned) [Compound A-127] | ≤ 10 | 100 to 1000 | – |
| COc1nc(-c2cccc(-c3cccc(NC(=O)c4cn(C)c(=O)n(C)c4=O)c3F)c2C)cc2c1[C@@H](NC[C@@H]1CCC(=O)N1)CC2 [Compound A-6] | ≤ 10 | – | 10 to 100 |
| COc1nc(-c2cccc(-c3cccc(NC(=O)c4cn(C)c(=O)n(C)c4=O)c3Cl)c2Cl)cc2c1[C@@H](N1CC(C(=O)O)C1)CC2 (single isomer, unassigned) [Compound J-3] | ≤ 10 | – | ≤ 10 |
| COc1nc(-c2cccc(-c3cccc(Nc4nccc5cccnc45)c3Cl)c2Cl)cc2c1[C@@H](NC[C@@H]1CCC(=O)N1)CC2 [Compound B-3] | ≤ 10 | – | 100 to 1000 |
| COc1nc(-c2cccc(-c3cccc(NC(=O)c4cn(C)c(=O)n(C)c4=O)c3C)c2Cl)cc2c1C(NC[C@@H]1CCC(=O)N1)C(O)C2 (single isomer, unassigned) [Compound A-125] | ≤ 10 | > 5000 | – |
| COc1nc(-c2cccc(-c3cccc(NC(=O)c4cn(C)c(=O)n(C)c4=O)c3C)c2Cl)cc2c1[C@H](N1CC3(CN(C(C)=O)C3)C1)CC2 (single isomer, unassigned) [Compound A-72] | ≤ 10 | – | 10 to 100 |
| COc1nc(-c2cccc(-c3cccc(NC(=O)c4cn(C)c(=O)n(C)c4=O)c3C)c2F)cc2c1[C@@H](NC[C@@H]1CCC(=O)N1)CC2 [Compound A-8] | ≤ 10 | – | ≤ 10 |
| COc1nc(-c2cccc(-c3cccc(NC(=O)c4ccnn(C)c4=O)c3Cl)c2Cl)cc2c1C(N1CC(C(=O)O)C1)CC2 (single isomer, unassigned) [Compound J-1] | ≤ 10 | – | ≤ 10 |
| COc1nc(-c2cccc(-c3cccc(NC(=O)c4cn(C)c(=O)n(C)c4=O)c3Cl)c2Cl)cc2c1[C@H](N1CC3(CCNC3=O)C1)CC2 (single isomer, unassigned) [Compound A-22] | ≤ 10 | – | ≤ 10 |
| COc1nc(-c2cccc(-c3cccc(NC(=O)c4c[nH]c(=O)n(C)c4=O)c3C)c2Cl)cc2c1[C@@H](NC[C@@H]1CCC(=O)N1)CC2 [Compound A-55] | ≤ 10 | – | ≤ 10 |
| COc1nc(-c2cccc(-c3cccc(NC(=O)c4cn(C)c(=O)n(C)c4=O)c3Cl)c2Cl)cc2c1[C@H](N1CC(OC)C1)CC2 (single isomer, unassigned) [Compound A-25] | ≤ 10 | – | ≤ 10 |
| COc1nc(-c2cccc(-c3cccc(NC(=O)c4cn(C)c(=O)n(C)c4=O)c3Cl)c2Cl)cc2c1[C@@H](NC[C@@H]1CNC(=O)C1)CC2 (single isomer, unassigned) [Compound A-135] | ≤ 10 | – | 100 to 1000 |
| COc1nc(-c2cccc(-c3cccc(NC(=O)c4cn(C)c(=O)n(C)c4=O)c3C)c2C)cc2c1[C@@H](N1CC(OC)C1)CC2 (single isomer, unassigned) [Compound A-83] | ≤ 10 | – | 10 to 100 |
| COc1nc(-c2cccc(-c3cccc(NC(=O)c4cn(C)c(=O)n(C)c4=O)c3Cl)c2Cl)cc2c1[C@@H](N1CC3(CCNC3=O)C1)CC2 (single isomer, unassigned) [Compound A-21] | ≤ 10 | – | 100 to 1000 |
| COc1nc(-c2cccc(-c3cccc(NC(=O)c4nn(C)c(=O)n(C)c4=O)c3Cl)c2Cl)cc2c1[C@@H](N[C@@H]1COC[C@H]1O)CC2 (single isomer, unassigned) [Compound A-99] | ≤ 10 | – | 100 to 1000 |
| COc1nc(-c2cccc(-c3cccc(NC(=O)c4cn(C)c(=O)n(C)c4=O)c3Cl)c2Cl)cc2c1C(N)C(O)C2 (centres unmarked) [Compound A-120] | ≤ 10 | – | 10 to 100 |
